Calls of active or inactive are those of the source. No cut-off for these calls is given here.
Assays:
[1] = test system: Human immunodeficiency virus 1; test: Inhibition of HIV1 BaL binding to human A431 cells relative to control; type: functional, organism-based; details: A-431
[2] = test system: Human immunodeficiency virus 1; test: Inhibition of HIV1 LAI binding to human Caco-2 cells relative to control; type: functional, organism-based
[3] = test system: Human immunodeficiency virus 1; test: Inhibition of HIV1 LAI binding to human A431 cells relative to control; type: functional, organism-based; details: A-431
[4] = test system: Human immunodeficiency virus 1; test: Antiviral activity against HIV1 BaL assessed as logReduction in viral transmission from human A431 cells to human PBMC by ELISA; type: functional
[5] = test system: Human immunodeficiency virus 1; test: Inhibition of HIV1 BaL binding to human Caco-2 cells relative to control; type: functional, organism-based

CC(C)=CCOc1cc(NC(=S)c2ccoc2C)ccc1Cl [UC 781]
Activity [1]: inactive | Activity [2]: inactive | Activity [3]: inactive | Activity [4]: 6.1 | Activity [5]: inactive
